The values that follow come from patent US7115609B2, “Alanyl-piperidine heterocyclic derivatives useful against cardiovascular diseases” (Eli Lilly and Company, priority 2001, dated 2006).

One may read the melting point as the temperature of the solid-liquid transition. Consider `CN1CCC(N2CCN(C(=O)[C@@H](CC(N)=O)NC(=O)c3cc4ccc(Cl)cc4s3)CC2)CC1.Cl`, for which the melting point was 219 to 223 °C (dec.).

As to `CN1CCC(C[C@@H](NC(=O)c2cc3cc(Cl)ccc3[nH]2)C(=O)N2CCN(C3CCN(C)CC3)CC2)CC1.Cl`, the melting point was 205 to 210 °C (dec.).

For the compound `CN1CCC(N2CCN(C(=O)[C@@H](CC(N)=O)NC(=O)c3ccc4cc[nH]c4c3)CC2)CC1.Cl`, the melting point was 215 to 219 °C (dec.).

With `CN1CCC(C2CCN(C(=O)[C@H](CC3CCOCC3)NC(=O)c3ccc4cc[nH]c4c3)CC2)CC1.Cl`, the melting point was 162 to 178 °C (dec.).

For the compound `CN1CCC(N2CCN(C(=O)[C@@H](CCC(=O)O)NC(=O)c3ccc4cc[nH]c4c3)CC2)CC1.Cl`, the melting point was 215 to 218 °C (dec.).

With `CN1CCC(C2CCN(C(=O)[C@@H](Cc3cccnc3)NC(=O)c3ccc4cc[nH]c4c3)CC2)CC1.Cl`, the melting point was 177 to 182 °C (dec.).

Regarding `CN1CCC(C[C@@H](NC(=O)c2ccc3cc[nH]c3c2)C(=O)N2CCN(C3CCN(C)CC3)CC2)CC1.Cl`, the melting point was 190 to 193 °C (dec.).

As for `CN1CCC(N2CCN(C(=O)[C@@H](Cc3ccccn3)NC(=O)c3cc4ccc(Cl)cc4s3)CC2)CC1.Cl`, the melting point was 219 to 223 °C (dec.).

Consider `CN1CCC(N2CCN(C(=O)[C@@H](CCC(=O)O)NC(=O)c3cc4ccc(Cl)cc4s3)CC2)CC1.Cl`, for which the melting point is 185 to 190 °C (dec.).

For the compound `CN1CCC(C2CCN(C(=O)[C@@H](Cc3cn(C)cn3)NC(=O)c3ccc4cc[nH]c4c3)CC2)CC1.Cl`, the melting point was 179 to 185 °C (dec.).

With `CN1CCC(C[C@@H](NC(=O)c2cc3ccc(Cl)cc3s2)C(=O)N2CCN(C3CCN(C)CC3)CC2)CC1.Cl`, the melting point is 220 to 223 °C (dec.).

Turning to `CN1CCC(C2CCN(C(=O)[C@@H](Cc3ccncc3)NC(=O)c3ccc4cc[nH]c4c3)CC2)CC1.Cl`, the melting point is 183 to 186 °C (dec.).

On to `CN1CCC(C2CCN(C(=O)[C@@H](CC3CCCCC3)NC(=O)c3ccc4cc[nH]c4c3)CC2)CC1.Cl`, for which the melting point is 162 to 172 °C (dec.).

For the compound `CN1CCC(N2CCN(C(=O)[C@@H](Cc3ccccn3)NC(=O)c3ccc4cc[nH]c4c3)CC2)CC1.Cl`, the melting point is 232 to 235 °C (dec.).

As for `CN1CCC(N2CCN(C(=O)[C@@H](CCC(=O)O)NC(=O)c3cc4cc(Cl)ccc4[nH]3)CC2)CC1.Cl`, the melting point was 222 to 225 °C (dec.).

`CN1CCC(C2CCN(C(=O)[C@@H](Cc3ccccn3)NC(=O)c3ccc4cc[nH]c4c3)CC2)CC1.Cl`: the melting point is 175 to 179 °C (dec.).

In the case of `CN1CCC(N2CCN(C(=O)[C@@H](CC(N)=O)NC(=O)c3cc4cc(Cl)ccc4[nH]3)CC2)CC1.Cl`, the melting point was 235 to 240 °C (dec.).

Consider `CN1CCC(N2CCN(C(=O)[C@@H](Cc3ccncc3)NC(=O)c3cc4cc(Cl)ccc4[nH]3)CC2)CC1.Cl`, for which the melting point is 238 to 242 °C (dec.).

Take `CN1CCC(N2CCN(C(=O)[C@@H](Cc3ccncc3)NC(=O)c3cc4ccc(Cl)cc4s3)CC2)CC1.Cl`: the melting point is 213 to 217 °C (dec.).

Turning to `CN1CCC(N2CCN(C(=O)[C@@H](Cc3ccccn3)NC(=O)c3cc4cc(Cl)ccc4[nH]3)CC2)CC1.Cl`, the melting point is 210 to 214 °C (dec.).

For the compound `CN1CCC(N2CCN(C(=O)[C@@H](Cc3ccncc3)NC(=O)c3ccc4cc[nH]c4c3)CC2)CC1.Cl`, the melting point is 228 to 235 °C (dec.).
